Assay [1] concerns the target T1, Apoptotic protease-activating factor 1 (Homo sapiens, UniProt O14727).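 Further: caspase-3 cleavage of fluorogenic Rh110 DEVD substrate downstream of apoptosome activation.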
T1 sequence (O14727 whole entry): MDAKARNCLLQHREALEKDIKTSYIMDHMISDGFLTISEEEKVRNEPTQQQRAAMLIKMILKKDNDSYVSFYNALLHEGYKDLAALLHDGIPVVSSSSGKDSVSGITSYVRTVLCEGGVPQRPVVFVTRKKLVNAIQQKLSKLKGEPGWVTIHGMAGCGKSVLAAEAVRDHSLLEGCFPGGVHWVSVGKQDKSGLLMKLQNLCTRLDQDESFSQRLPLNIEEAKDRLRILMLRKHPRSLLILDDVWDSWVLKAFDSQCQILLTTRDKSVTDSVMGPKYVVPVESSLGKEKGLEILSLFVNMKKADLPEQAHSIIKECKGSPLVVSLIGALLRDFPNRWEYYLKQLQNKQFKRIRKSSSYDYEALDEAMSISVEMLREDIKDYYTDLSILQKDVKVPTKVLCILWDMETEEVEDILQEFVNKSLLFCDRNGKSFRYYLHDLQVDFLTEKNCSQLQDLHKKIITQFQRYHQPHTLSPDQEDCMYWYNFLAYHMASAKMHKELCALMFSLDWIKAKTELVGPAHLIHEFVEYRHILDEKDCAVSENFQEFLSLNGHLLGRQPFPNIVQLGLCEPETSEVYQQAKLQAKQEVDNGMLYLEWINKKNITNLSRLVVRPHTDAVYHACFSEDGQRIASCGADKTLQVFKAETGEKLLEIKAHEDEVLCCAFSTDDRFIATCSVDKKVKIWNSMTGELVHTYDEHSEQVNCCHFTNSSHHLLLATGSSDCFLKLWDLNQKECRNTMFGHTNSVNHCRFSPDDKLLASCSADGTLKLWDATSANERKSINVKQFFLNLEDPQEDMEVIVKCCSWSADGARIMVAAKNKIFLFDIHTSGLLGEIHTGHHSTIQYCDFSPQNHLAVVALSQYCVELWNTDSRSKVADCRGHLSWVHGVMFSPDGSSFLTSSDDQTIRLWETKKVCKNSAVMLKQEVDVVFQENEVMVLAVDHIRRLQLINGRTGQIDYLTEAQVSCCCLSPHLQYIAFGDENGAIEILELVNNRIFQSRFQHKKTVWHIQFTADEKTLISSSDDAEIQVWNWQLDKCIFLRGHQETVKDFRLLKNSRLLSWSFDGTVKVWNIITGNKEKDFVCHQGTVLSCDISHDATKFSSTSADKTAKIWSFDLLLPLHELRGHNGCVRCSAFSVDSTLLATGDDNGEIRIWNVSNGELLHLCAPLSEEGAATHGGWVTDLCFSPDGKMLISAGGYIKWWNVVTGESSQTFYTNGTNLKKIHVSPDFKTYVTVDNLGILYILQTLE
The experiment in a line: SAR analysis of small molecule Activators of Apaf-1 in a Fluorescent assay. The note with it: read-out: EC50_Mean. The format is functional.

A further assay deals with T2, Cysteine protease ATG4B (Homo sapiens, UniProt Q9Y4P1).
T2 sequence (Q9Y4P1 whole entry): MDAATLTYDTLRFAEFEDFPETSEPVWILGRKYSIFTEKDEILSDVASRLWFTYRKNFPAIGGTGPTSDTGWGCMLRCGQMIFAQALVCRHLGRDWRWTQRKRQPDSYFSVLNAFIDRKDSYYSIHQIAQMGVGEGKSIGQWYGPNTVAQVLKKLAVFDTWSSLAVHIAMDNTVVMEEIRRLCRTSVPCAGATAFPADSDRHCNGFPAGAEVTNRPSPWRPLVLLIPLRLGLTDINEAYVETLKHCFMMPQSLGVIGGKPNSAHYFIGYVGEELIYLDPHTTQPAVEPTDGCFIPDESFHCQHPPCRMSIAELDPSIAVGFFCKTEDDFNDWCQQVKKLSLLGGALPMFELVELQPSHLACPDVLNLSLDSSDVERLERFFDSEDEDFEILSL
The class given is functional.

The next assay has as its target Phospholipase A2 (Homo sapiens, UniProt P04054). The class given is functional.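 Further: confirmatory dose-response counterscreen on phospholipase A2, testing hits that came from an ultra-high-throughput screen for ATG4B inhibitors.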
The nature of assay [2]: mammalian cell viability loss – Alamar Blue, dry powder, cytotoxicity control for antifungal single agent project, dose response (AID 602188). The class given is functional, cell-based. On the technique in general: Alamar Blue is a resazurin reagent that responds to reducing activity.
A further assay has as its target Prothrombin (Bos taurus, UniProt P00735). The experiment in a line: thrombin protease inhibitors – biochemical, fluorescence polarization, uHTS hits, dose response (AID 602369). The format is functional. A general note: Polarisation of emitted light reports the rotation of a fluorescent probe.
In assay [3] the target is 72 kDa type IV collagenase (Homo sapiens, UniProt P08253). The experiment in a line: Dose Response validation of uHTS RPN11 inhibitor hits using a MMP-2 Fluorescence assay. The class given is functional.
Chain of 72 kDa type IV collagenase (P08253 whole entry): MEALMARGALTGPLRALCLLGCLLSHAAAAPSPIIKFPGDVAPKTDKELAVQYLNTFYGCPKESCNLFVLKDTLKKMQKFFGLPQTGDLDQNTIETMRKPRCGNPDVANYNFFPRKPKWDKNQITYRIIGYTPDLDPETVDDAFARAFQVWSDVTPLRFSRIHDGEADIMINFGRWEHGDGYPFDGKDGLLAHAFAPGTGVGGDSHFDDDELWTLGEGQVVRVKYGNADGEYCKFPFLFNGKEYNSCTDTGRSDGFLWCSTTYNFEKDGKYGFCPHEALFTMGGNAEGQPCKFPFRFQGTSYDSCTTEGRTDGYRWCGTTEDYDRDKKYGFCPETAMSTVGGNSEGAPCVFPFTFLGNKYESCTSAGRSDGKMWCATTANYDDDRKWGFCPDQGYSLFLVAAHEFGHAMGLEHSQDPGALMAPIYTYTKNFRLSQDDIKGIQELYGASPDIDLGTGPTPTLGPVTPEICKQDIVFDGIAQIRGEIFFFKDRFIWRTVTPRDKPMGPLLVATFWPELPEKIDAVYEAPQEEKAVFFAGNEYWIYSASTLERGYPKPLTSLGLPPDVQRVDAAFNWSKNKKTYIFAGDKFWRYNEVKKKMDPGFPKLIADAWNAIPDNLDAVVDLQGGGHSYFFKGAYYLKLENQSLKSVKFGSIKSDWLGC
In assay [4] the target is 26S proteasome non-ATPase regulatory subunit 14 (Homo sapiens, UniProt O00487). Briefly: inhibition of proteasome subunit RPN11 – biochemical, fluorescence polarization, uHTS hits, confirmation (AID 602368). The class given is functional.
Chain of 26S proteasome non-ATPase regulatory subunit 14 (O00487 whole entry): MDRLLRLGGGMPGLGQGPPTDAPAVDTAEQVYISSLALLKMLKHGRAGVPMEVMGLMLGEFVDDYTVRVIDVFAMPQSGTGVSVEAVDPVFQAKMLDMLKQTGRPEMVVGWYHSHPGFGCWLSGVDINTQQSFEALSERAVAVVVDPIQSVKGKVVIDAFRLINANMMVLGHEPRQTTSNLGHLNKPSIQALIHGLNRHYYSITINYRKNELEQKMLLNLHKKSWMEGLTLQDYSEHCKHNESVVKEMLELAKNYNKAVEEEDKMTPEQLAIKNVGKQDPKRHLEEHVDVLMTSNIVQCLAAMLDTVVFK
The nature of assay [5]: reduction of Shn3 3'UTR-driven luciferase in osteoblasts – cell-based, Clone20 osteoblasts, firefly luciferase, cherry-picked, dose response (AID 624132).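 Further: firefly luciferase luminescence from reporter carrying the Shn3 3'UTR in osteoblasts.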 The format is functional.
The target in assay [6] is T3, High affinity choline transporter 1 (Homo sapiens, UniProt Q9GZV3).
T3 sequence (Q9GZV3 whole entry): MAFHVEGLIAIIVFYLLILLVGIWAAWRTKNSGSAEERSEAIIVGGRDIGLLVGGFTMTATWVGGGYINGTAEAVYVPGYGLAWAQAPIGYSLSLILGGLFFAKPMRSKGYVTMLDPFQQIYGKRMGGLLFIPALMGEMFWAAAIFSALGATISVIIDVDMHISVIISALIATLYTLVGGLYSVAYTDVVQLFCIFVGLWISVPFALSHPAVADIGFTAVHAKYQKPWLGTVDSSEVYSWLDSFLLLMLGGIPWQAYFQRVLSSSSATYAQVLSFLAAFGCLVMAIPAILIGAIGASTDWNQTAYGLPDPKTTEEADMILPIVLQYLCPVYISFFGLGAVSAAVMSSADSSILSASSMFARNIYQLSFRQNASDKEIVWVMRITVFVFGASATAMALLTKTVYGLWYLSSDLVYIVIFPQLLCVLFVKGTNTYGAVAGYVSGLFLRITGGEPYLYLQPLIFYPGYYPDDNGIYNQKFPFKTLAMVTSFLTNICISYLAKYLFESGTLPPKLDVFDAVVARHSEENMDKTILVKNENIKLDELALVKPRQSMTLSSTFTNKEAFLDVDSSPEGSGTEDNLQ
The experiment in a line: human choline transporter blockers, potency – cell-based, 10-point CRC, membrane potential dye, dose response (AID 588401).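 Further: membrane potential dye fluorescence of choline-evoked depolarization via CHT.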 The format is functional.

Assay [7] is described as follows: viability of PTEN-deleted HCT116 cells – cell-based, HCT116 PTEN knockout, dose response (AID 1047).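 Further: HCT116 colon tumor cells with PTEN knocked out; cells exposed to compound for 60 hours before readout; potency for loss of cell viability measured by luminescence.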 The class given is functional.
Assay [8] addresses T3, High affinity choline transporter 1. The experiment in a line: human choline transporter blockers, potency – cell-based, 5-point CRC, membrane potential dye, dose response (AID 504840). The format is functional.
A short description of assay [9]: loss of viability in HepG2 cells – cell-based, CellTiter-Glo, cherry-picked, cytotoxicity control for Shn3 inhibitor project, dose response (AID 624134). The class given is functional. On the technique in general: Cellular ATP, detected with luciferase, serves as a proxy for viable cell number.
Assay [10] addresses T4, Fatty acid synthase (Homo sapiens, UniProt P49327). The experiment in a line: inhibition of human FAS-TE enzyme activity – biochemical, kinetic fluorescence intensity, dose response (AID 624326).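 Further: rate of fluorescence rise from hydrolysis of a fluorogenic O-methyl fluorescein ester substrate.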 The format is functional.
The nature of assay [11]: non-specific 3'UTR reporter inhibition in Clone20-Shn3RL – cell-based, Renilla luciferase, cherry-picked, counter-screen for Shn3 inhibitor project, dose response (AID 624133). The class given is functional.
The target in assay [12] is T4, Fatty acid synthase. Briefly: inhibition of human FAS-TE enzyme activity – biochemical, endpoint fluorescence intensity, uHTS hits, dose response (AID 624327).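 Further: fluorescence from hydrolysis of an O-methyl fluorescein acyl ester substrate by the enzyme.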 The class given is functional.
The nature of assay [13]: viability of HCT116 lacking mutant beta-catenin – cell-based, human colon tumor, dose response (AID 1045).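 Further: HCT116 colon tumor cells with beta catenin knocked out; cells exposed to compound for 60 hours.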 The format is functional.
The nature of assay [14]: bead-based luminescence quenchers, dual-tagged ARNT – biochemical, AlphaScreen, cherry-pick, artefact control for ARNT-TACC3 interaction inhibitor project, dose response (AID 651705).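 Further: AlphaScreen bead proximity signal that flags compounds interfering with the detection technology; potency reflects signal decrease which marks the compound as an assay artifact.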 The class given is functional.
The target in assay [15] is T5, DNA repair protein RAD52 homolog (Homo sapiens, UniProt P43351).
T5 sequence (P43351 whole entry): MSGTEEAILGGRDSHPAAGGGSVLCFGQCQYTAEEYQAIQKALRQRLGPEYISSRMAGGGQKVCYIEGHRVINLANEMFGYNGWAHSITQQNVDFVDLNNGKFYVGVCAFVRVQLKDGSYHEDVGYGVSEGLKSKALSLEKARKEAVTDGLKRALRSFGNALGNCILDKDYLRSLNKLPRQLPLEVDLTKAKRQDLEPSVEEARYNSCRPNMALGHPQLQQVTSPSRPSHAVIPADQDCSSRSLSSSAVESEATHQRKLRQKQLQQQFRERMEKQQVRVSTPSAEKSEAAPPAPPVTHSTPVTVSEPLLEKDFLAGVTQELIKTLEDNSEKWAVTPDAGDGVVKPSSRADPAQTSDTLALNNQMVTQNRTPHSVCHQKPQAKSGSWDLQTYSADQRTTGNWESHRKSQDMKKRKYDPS
The class given is functional, biochemical.

Assay [16] has as its target DNA repair and recombination protein RAD54-like (Homo sapiens, UniProt Q92698). Briefly: RAD54 Holliday junction migration blockers – biochemical, fluorescence, cherry-picked samples, dose series, confirmation (AID 651657). The class given is functional.
Assay [17] can be described thus: rise of 2N DNA cells, HeLa – IC50, dose response (AID 1117349). The class given is functional, cell-based.
The nature of assay [18]: rise of 4N DNA cells, HeLa – IC50, dose response (AID 1117351). The class given is functional, cell-based.
For another assay, the target named is Protein Wnt-3a (Mus musculus, UniProt P27467). The experiment in a line: antagonism of Wnt3a pathway luciferase reporter – Wnt-LIGHT cells, luminescence, selectivity assay for Gli-SUFU antagonist project, dose response (AID 651570).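 Further: Wnt-LIGHT reporter cells stimulated with conditioned medium from Wnt3a-producing cells.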 The class given is functional. Conditions: read-out: IC50_Mean.
For assay [19], the target named is T6, Carboxy-terminal domain RNA polymerase II polypeptide A small phosphatase 1 (Homo sapiens, UniProt Q9GZU7).
T6 sequence (Q9GZU7 whole entry): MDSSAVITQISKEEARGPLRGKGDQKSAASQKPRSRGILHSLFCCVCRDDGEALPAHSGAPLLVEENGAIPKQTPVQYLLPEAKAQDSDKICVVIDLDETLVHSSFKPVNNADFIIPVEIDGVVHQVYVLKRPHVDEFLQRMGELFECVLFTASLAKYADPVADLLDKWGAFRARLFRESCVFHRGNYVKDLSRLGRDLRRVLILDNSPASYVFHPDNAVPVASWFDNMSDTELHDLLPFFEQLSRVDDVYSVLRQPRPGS
The experiment in a line: CTDSP1 inhibitors, concentration-response, biochemical, absorbance readout, ultra-high-throughput screen actives (AID 540297). The class given is functional.

In assay [20] the target is DNA (cytosine-5)-methyltransferase 1 (Homo sapiens, UniProt P26358). Briefly: inhibition of DNA methylation by DNMT1 – biochemical, fluorescent molecular beacon, confirmation (AID 602386). The format is functional.
The target of another assay is Estrogen receptor beta (Homo sapiens, UniProt Q92731). The experiment in a line: blockers of SRC-3 recruitment to ERβ – biochemical, ELISA, streptavidin-HRP readout, orthogonal assay, confirmation (AID 1060).
Chain of Estrogen receptor beta (Q92731 whole entry): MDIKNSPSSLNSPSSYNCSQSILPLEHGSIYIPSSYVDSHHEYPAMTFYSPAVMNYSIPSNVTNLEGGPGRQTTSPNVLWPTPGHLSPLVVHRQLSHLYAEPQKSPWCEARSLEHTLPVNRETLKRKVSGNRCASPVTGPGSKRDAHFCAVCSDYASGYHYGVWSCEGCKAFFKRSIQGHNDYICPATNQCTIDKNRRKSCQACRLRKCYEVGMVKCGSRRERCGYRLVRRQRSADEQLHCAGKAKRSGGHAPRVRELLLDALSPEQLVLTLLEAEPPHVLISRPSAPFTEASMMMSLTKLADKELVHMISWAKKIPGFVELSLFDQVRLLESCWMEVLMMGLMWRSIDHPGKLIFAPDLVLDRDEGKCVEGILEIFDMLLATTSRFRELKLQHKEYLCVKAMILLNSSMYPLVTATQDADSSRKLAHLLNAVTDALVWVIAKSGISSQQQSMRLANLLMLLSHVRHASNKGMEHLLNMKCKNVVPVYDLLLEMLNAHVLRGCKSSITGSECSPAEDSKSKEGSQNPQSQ

Activity calls are given as the source filed them.

T4 sequence (P49327 whole entry): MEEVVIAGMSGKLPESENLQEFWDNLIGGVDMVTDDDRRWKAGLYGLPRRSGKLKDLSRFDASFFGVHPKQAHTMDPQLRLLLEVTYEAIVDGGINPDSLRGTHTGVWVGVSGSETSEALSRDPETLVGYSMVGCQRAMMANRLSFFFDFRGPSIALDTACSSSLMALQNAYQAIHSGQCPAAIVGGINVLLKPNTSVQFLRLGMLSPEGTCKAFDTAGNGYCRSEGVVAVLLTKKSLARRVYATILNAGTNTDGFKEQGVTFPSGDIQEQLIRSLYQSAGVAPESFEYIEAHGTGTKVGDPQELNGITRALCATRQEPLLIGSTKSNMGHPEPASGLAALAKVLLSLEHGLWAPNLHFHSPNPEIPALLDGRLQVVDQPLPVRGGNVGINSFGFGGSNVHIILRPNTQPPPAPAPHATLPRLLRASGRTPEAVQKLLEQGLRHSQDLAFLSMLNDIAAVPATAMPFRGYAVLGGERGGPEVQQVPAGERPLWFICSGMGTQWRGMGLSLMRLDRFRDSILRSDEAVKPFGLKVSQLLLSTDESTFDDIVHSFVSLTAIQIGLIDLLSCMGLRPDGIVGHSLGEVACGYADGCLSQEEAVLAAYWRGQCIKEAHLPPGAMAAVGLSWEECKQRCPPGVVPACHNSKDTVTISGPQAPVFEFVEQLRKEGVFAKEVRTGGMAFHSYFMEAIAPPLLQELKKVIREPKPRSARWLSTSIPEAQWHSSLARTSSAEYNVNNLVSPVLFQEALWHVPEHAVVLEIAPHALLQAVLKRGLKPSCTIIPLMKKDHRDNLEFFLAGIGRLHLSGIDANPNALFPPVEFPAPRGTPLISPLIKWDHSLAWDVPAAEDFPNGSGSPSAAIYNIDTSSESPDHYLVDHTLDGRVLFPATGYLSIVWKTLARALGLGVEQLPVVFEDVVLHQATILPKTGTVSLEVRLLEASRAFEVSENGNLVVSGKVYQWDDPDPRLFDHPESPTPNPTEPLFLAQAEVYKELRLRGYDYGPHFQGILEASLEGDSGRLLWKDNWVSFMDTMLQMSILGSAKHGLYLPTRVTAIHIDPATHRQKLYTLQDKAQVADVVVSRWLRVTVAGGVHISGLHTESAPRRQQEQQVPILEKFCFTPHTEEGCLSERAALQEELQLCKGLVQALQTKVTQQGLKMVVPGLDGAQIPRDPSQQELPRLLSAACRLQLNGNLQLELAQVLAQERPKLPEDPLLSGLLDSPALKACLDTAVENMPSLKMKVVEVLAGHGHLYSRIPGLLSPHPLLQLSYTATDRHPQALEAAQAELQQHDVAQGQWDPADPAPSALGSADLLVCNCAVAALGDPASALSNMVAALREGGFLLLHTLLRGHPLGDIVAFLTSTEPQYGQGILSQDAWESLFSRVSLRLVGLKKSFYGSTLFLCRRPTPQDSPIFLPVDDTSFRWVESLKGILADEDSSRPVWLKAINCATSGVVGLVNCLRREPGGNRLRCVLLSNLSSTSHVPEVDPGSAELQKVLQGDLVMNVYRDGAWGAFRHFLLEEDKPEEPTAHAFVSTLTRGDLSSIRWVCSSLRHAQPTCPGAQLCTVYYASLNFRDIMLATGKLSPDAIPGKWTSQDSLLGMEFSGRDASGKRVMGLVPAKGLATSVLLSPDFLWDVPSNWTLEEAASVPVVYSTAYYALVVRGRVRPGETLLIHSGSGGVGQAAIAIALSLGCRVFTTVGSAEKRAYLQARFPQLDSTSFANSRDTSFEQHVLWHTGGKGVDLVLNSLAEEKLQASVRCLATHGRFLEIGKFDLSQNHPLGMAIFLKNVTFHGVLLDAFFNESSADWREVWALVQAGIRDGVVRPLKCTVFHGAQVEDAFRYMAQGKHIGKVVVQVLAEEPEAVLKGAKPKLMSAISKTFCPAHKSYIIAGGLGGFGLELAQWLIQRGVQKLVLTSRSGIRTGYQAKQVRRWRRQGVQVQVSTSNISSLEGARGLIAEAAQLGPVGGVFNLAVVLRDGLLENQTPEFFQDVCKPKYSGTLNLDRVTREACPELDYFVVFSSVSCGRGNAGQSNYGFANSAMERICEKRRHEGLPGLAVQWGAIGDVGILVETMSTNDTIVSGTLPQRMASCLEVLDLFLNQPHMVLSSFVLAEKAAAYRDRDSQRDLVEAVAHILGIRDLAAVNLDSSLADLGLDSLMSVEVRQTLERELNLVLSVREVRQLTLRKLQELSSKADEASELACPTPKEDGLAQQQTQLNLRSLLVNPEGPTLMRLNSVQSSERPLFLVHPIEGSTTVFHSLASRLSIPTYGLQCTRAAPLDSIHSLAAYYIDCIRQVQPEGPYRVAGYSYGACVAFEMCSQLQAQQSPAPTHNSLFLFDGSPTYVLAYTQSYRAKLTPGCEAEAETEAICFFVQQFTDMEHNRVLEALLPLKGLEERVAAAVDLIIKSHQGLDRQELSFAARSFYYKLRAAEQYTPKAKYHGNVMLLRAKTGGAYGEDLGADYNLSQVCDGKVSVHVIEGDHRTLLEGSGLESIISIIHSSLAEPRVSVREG
Chain of Phospholipase A2 (P04054 whole entry): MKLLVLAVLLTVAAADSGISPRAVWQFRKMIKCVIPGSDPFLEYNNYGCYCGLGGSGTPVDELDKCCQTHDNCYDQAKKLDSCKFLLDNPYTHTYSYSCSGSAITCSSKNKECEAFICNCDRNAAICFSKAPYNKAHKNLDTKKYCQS
Chain of DNA repair and recombination protein RAD54-like (Q92698 whole entry): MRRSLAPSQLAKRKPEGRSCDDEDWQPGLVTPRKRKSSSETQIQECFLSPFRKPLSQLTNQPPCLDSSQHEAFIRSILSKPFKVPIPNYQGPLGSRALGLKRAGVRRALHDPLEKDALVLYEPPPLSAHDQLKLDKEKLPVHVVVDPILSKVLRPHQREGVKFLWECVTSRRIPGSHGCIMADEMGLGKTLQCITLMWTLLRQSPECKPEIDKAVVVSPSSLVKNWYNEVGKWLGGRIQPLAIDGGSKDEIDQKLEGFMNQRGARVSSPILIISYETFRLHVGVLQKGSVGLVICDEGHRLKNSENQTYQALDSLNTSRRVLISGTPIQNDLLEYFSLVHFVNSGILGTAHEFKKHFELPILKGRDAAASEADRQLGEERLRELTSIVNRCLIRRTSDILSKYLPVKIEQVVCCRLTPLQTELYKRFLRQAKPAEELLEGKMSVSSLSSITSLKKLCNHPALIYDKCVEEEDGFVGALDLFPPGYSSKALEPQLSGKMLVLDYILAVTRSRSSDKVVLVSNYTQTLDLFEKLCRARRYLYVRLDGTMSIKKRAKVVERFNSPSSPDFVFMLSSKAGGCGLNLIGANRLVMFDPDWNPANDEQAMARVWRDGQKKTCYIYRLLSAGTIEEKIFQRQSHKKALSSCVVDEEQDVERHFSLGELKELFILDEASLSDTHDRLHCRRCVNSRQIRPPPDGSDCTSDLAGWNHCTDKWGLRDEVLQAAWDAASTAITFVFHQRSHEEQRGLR

`O=C(O)c1coc(-c2cc3ccccc3s2)n1`: the EC50 in assay [1] was > 100 µM (inactive).

Regarding `Cc1c(Cl)c([N+](=O)[O-])nn1Cc1ccc(C(=O)Nc2ccc(Cl)cn2)o1`, the IC50 at Cysteine protease ATG4B is 22.5 µM (inactive); on Phospholipase A2, 11.1 µM (active).

Turning to `COc1ccccc1CNC(=O)c1ccccc1OCc1ccc(F)cc1`, the IC50 was 43.6 µM (inactive) on Cysteine protease ATG4B and 49.5 µM (inactive) at Phospholipase A2.

Broadly, the AC50 is the concentration giving half of the maximal activity seen. Take `Oc1c(C(c2ccc(Cl)cc2)N2CCCC2)ccc2cccnc12` (configuration not stated): the half-maximal activity concentration (AC50) in [2] is 1.71 µM (active).

On to `CCC(C)Sc1ccc([C@@H]2[C@H]3C(=O)N(CC)C(=O)[C@H]3[C@]3(C(=O)OC)CCCCN23)cc1` (some centres not stated), for which the IC50 is 47.8 µM (active) at Prothrombin, > 100 µM (inactive) in assay [3] and 69 µM (active) in [4].

On to `CCCCn1c(CN2CCN(c3ccccc3)CC2)nc2c1c(=O)n(C)c(=O)n2C`, for which the figures for the AC50 in assay [5], in [9] and in assay [11] were 2.05 µM (active), 6.34 µM (active) and 1.27 µM (active), respectively. Further, the IC50 was 1.96 µM (active) in assay [6], 4.27 µM (active) in [8], 21.5 µM (inactive) at Fatty acid synthase [10] and 15.3 µM (active) at Fatty acid synthase [12]. Also, the EC50 was 38.9 µM (active) in assay [7] and 21.9 µM (active) in assay [13].

As to `CC(=O)[C@H]1[C@@H]2C(=O)N(c3cccc(Cl)c3)C(=O)[C@@H]2[C@H]2c3ccccc3C=CN21`, the half-maximal activity concentration (AC50) in [14] is 122 µM (active).

Regarding `CCN(CC)CCNc1ccc(CO)c2sc3ccccc3c(=O)c12` [HYCANTHONE], the AC50 is 9.33 µM (active) in assay [15] and 6.95 µM (active) in assay [16]. Besides, the figures for the IC50 in assay [17] and in [18] were 5.68 µM (inactive) and > 10 µM (inactive), respectively.

As for `CCCC(=O)NC(=S)Nc1cccc(NC(=O)c2ccccc2Cl)c1`, the IC50 was 6.96 µM (active) in assay [6] and 10.3 µM (active) in [8].

Take `O=C(N[C@@H]1C/C=C\C[C@H](CC(=O)N(CCO)Cc2ccccc2)C(=O)N[C@@H](Cc2c[nH]c3ccccc23)COC1=O)OCC1c2ccccc2-c2ccccc21`: the IC50 on Protein Wnt-3a is 8.54 µM (active).

Regarding `Cc1ccc(C(=O)O)cc1-c1ccc(/C=C2/NC(=O)N(c3ccccc3)C2=O)o1`, the IC50 at Prothrombin was 33.9 µM (active); in assay [3], 29.3 µM (active); in [19], 4.1 µM (active); in assay [20], 11 µM (active); at Estrogen receptor beta, > 50 µM (not active); in assay [4] it was 16.3 µM (active).

(Values after ChEMBL document CHEMBL1201862, “PubChem BioAssay data set” (2004).)
